Data published in ChEMBL document CHEMBL3988442, “University of Dundee, Small-Polar-MMV Screening Library” (2021).
Several values for one entry are separate records, joined by “and”; a condition that tells them apart may be missing. Equal values may be shown once.

How the values were obtained:
[1] = biological target: T1, Histidine--tRNA ligase (Trypanosoma cruzi (strain CL Brener), UniProt Q4DA54); experiment: Trypanosoma cruzi histidyl tRNA synthetase (Tc-HisRS); assay type: functional
T1 sequence (Q4DA54 whole entry): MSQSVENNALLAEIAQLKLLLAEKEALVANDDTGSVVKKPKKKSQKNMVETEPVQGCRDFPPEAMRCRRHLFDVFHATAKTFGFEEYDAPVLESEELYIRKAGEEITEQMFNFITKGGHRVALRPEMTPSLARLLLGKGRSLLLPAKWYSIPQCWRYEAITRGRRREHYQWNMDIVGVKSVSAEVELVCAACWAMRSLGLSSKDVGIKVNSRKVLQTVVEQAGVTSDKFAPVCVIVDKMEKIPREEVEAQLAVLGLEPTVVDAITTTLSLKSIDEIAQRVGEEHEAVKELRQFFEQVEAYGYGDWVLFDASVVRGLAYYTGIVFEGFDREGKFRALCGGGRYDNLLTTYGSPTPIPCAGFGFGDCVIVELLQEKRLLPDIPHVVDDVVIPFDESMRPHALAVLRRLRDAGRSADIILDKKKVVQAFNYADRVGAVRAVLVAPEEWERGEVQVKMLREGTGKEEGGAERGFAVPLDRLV

[2] = system: Schistosoma mansoni; experiment: High throughput screening of compounds against Schistosoma mansoni motility; assay type: functional; set-up: dose or concentration left out as unconfirmed
[3] = biological target: Chromo domain-containing protein 1 (Saccharomyces cerevisiae (strain ATCC 204508 / S288c) (Baker's yeast), UniProt P32657); experiment: ScCHD-1 Enzyme Inhibition Assay; assay type: functional
[4] = biological target: ClpP1P2 (Mycobacterium tuberculosis (strain ATCC 25618 / H37Rv), UniProt P9WPC3+P9WPC5); experiment: in vitro assay to detect presence of AMC directly proportional to the activity of ClpP1P2. GHDDI collaboration.; assay type: functional
[5] = biological target: T2, Histidine--tRNA ligase (Leishmania infantum, UniProt A4I591); experiment: Leishmania infantum Histidine tRNA synthetase (LdHisRS); assay type: functional
T2 sequence (A4I591 whole entry): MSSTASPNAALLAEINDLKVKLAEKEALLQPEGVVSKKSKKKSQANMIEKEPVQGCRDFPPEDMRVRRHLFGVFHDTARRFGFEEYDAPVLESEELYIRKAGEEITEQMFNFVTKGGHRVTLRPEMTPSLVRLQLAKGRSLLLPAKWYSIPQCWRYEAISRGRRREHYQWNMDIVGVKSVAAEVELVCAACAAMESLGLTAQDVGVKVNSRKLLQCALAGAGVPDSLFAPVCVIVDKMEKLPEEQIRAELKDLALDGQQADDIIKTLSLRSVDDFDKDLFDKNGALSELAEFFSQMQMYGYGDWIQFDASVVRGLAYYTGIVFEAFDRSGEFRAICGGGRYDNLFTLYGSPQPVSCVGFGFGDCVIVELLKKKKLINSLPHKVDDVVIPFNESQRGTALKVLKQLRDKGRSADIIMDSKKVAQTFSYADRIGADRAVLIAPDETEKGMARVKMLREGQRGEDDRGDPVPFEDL

[6] = biological target: Sialic acid-binding Ig-like lectin 9 (Homo sapiens, UniProt Q9Y336); experiment: Hs-Siglec9 ALPHAscreen SOP 20170721
[7] = biological target: T3, Coenzyme A biosynthesis bifunctional protein CoaBC (Mycobacterium tuberculosis (strain ATCC 25618 / H37Rv), UniProt P9WNZ1); experiment: Biomol Green assay for MtCoaBC inhibitor, OD650 read; assay type: functional
T3 sequence (P9WNZ1 whole entry): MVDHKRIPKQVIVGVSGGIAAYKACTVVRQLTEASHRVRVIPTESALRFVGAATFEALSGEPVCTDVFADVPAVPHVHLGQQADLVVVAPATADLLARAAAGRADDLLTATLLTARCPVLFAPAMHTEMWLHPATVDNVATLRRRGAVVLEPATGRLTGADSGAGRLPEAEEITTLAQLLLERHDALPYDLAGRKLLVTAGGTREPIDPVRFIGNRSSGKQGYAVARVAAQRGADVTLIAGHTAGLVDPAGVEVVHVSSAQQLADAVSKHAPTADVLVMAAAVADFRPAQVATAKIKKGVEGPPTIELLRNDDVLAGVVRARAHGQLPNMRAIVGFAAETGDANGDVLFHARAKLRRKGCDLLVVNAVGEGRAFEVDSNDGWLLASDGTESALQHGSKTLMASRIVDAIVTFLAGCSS

[8] = microbe, parasite or virus in culture; conditions: Mycobacterium tuberculosis, 72 h, read-out: pIC50 (converted)
[9] = microbe, parasite or virus in culture; conditions: Mycobacterium tuberculosis, 96 h, read-out: pIC50 (converted)
[10] = biological target: Tryptophan--tRNA ligase (Mycobacterium tuberculosis (strain ATCC 25618 / H37Rv), UniProt P9WFT3); experiment: Biochemical assay for Mt-TrpRS; assay type: functional
Tryptophan--tRNA ligase, sequence (P9WFT3 whole entry): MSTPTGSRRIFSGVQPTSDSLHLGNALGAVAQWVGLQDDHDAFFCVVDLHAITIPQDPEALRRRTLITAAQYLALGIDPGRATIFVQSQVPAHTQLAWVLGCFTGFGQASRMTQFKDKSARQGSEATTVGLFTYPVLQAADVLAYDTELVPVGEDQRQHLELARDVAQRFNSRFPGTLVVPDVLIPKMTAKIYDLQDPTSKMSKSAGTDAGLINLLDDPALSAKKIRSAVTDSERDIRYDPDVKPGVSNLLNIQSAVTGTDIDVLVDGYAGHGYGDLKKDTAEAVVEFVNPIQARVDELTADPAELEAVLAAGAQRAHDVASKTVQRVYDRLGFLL

Chromo domain-containing protein 1, sequence (P32657 whole entry, the tested form may be a part): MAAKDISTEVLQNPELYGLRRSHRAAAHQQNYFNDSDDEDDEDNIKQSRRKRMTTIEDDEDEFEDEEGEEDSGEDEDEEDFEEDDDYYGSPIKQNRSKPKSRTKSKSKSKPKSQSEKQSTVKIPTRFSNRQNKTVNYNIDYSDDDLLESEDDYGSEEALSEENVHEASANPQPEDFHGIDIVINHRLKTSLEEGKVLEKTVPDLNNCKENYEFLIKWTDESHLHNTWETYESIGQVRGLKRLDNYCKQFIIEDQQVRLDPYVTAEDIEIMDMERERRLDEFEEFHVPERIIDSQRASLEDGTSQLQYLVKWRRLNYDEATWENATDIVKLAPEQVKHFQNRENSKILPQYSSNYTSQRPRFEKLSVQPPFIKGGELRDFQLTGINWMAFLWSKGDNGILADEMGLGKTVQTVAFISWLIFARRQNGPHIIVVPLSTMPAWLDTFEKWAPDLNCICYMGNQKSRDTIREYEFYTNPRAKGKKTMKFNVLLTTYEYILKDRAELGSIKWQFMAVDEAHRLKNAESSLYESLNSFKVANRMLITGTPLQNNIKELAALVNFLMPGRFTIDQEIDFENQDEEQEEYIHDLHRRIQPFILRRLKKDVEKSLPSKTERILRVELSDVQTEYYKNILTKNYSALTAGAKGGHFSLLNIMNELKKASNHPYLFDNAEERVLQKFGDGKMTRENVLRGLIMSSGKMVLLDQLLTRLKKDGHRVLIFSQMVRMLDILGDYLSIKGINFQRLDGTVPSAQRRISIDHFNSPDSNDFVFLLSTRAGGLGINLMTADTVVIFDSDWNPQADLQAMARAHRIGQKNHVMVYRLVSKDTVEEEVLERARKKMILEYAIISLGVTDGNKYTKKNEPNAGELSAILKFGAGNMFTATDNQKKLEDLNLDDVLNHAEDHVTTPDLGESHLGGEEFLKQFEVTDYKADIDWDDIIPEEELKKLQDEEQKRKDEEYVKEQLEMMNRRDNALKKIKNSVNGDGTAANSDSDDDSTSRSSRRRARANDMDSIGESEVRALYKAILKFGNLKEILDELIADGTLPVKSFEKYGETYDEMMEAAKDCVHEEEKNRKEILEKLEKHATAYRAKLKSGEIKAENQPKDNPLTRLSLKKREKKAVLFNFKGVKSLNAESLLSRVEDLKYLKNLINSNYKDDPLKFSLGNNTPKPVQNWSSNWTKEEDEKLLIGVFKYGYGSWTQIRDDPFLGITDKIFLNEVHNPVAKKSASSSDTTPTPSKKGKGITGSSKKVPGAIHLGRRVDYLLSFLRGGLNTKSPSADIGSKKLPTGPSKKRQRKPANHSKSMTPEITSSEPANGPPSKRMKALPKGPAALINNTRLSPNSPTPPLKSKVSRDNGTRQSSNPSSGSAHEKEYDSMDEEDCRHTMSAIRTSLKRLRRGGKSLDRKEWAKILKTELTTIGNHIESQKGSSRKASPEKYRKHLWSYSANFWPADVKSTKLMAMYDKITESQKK
ClpP1P2, sequence (P9WPC5 whole entry): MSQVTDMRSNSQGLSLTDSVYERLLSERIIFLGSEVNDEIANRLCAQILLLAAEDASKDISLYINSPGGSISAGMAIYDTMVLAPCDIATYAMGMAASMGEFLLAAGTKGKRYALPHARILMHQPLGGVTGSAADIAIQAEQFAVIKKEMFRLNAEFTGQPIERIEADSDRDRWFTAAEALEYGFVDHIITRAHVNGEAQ
ClpP1P2, sequence (P9WPC3 whole entry): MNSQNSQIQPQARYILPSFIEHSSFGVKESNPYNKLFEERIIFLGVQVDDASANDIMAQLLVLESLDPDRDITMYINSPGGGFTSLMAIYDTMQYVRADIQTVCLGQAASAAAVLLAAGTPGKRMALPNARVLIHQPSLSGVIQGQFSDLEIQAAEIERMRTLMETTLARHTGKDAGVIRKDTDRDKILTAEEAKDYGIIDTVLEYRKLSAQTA
Sialic acid-binding Ig-like lectin 9, sequence (Q9Y336 whole entry): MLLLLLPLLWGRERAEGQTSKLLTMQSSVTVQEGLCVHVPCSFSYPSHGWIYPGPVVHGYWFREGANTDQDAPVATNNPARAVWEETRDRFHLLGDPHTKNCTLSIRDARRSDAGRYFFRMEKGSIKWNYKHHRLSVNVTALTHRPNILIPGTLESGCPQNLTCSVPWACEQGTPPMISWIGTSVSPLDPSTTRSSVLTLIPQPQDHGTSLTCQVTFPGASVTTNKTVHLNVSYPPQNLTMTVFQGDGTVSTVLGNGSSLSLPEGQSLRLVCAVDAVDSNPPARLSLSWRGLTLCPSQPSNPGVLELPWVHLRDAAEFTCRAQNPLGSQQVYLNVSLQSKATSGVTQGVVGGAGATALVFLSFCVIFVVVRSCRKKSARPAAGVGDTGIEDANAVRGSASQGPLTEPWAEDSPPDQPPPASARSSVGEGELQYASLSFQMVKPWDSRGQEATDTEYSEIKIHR

| SMILES | IC50 [1] | Percent Effect [2] | IC50 [3] | also measured |
| --- | --- | --- | --- | --- |
| CCN(CC)CCNC(=O)CCc1c(C)nn(-c2cccc(Cl)c2)c1C | > 100 µM | – | – | – |
| CCN(CC)CCNC(=O)CCc1c(C)nn(-c2ccc(Cl)cc2)c1C | > 100 µM | – | – | – |
| CCN(CC)CCNC(=O)CCc1c(C)nn(-c2ccccc2Br)c1C | > 100 µM | – | – | – |
| CCN(CC)CCNC(=O)CCc1c(C)nn(-c2ccccc2Cl)c1C | > 100 µM | – | – | – |
| Cc1nn(-c2ccccc2Cl)c(C)c1CCC(=O)NCCS(C)(=O)=O | > 100 µM | – | – | – |
| Cc1ccc(N2Cc3c(CN(C)C)nn(C)c3C2)nn1 | > 100 µM | – | – | – |
| Cc1ccc(N2CCOCC3(CCCN(c4ncc(F)cn4)C3)C2)nn1 (stereo not drawn) | > 100 µM | – | – | – |
| Cc1cnc(N2CCCC3(COCCN(c4ccc(C)nn4)C3)C2)nc1 (stereo not drawn) | > 100 µM | – | – | – |
| Cc1ccc(N2CCCC3(COCCN(c4cnccn4)C3)C2)nn1 (stereo not drawn) | > 100 µM | – | – | – |
| Cc1cccc(NC(=O)Cn2ncc(SCC(N)=O)c(Cl)c2=O)c1C | – | 40.97% | > 29.5 µM | – |
| COc1ccc(C)cc1S(=O)(=O)NCC(c1cccn1C)N(C)C (stereo not drawn) | – | -44.63% | > 29.5 µM | – |
| COc1ncccc1C(=O)Nc1nc2c(s1)CN(S(=O)(=O)C1CC1)CC2 | – | -71.23% | > 29.5 µM | – |
| O=C(Cn1cc(-c2ccccc2)ncc1=O)Nc1ccncc1 | – | – | > 29.5 µM | IC50 [4]: > 100 µM |
| O=C(Cn1cc(-c2ccccc2)ncc1=O)Nc1nnc[nH]1 | – | – | > 29.5 µM | IC50 [4]: > 100 µM |
| O=C1CC(c2ccco2)c2sc(C(=O)O)c(-c3ccccc3)c2N1 (stereo not drawn) | – | – | 20.8 µM and 21.6 µM | IC50 [5]: 17.3 µM and 12.6 µM; IC50 [6]: > 30.2 µM; IC50 [4]: > 100 µM; IC50 [7]: > 30.2 µM |
| Nc1ncc2c(n1)CN(C1CCCC1)C2=O | – | – | > 29.5 µM | IC50 [8]: 16.8 µM; IC50 [9]: 20.4 µM |
| Cc1nc(CNC2CCCN(c3cccnn3)C2)no1 (stereo not drawn) | > 100 µM | – | – | – |
| c1cncc(-c2noc(CNC3CCCN(c4cccnn4)C3)n2)c1 (stereo not drawn) | > 100 µM | – | – | – |

| SMILES | IC50 [1] | Percent Effect [2] | IC50 [3] | also measured |
| --- | --- | --- | --- | --- |
| c1ccc(-c2nc(CNC3CCCN(c4cccnn4)C3)no2)cc1 (stereo not drawn) | > 100 µM | – | – | – |
| CC(=O)NCCc1ccc(S(=O)(=O)N(CC(C)C)C(C)C)s1 | – | 41.16% | > 29.5 µM | – |
| Cc1cnc(CNc2c(F)cccc2-n2cccn2)o1 | – | -41.52% | > 29.5 µM | – |
| O=C(CN1CCc2ccccc21)Nc1ccc(OC(F)F)cc1 | – | 42% | > 29.5 µM | IC50 [10]: > 195 µM |
| Cc1cc(NC(=O)NCCc2ccsc2)n(C)n1 | – | 10.29% | > 29.5 µM | IC50 [10]: > 195 µM |
| Cc1cc(CN(C)C(=O)NC(C)c2nncn2C)no1 (stereo not drawn) | – | 0.6145% | > 29.5 µM | – |
| O=C(NS(=O)(=O)c1ccccc1Cl)c1cccc2c1OCCO2 | – | -35.61% | > 29.5 µM | – |
| CC(c1cccnc1)N(C)Cc1csc(-c2ccccn2)n1 (stereo not drawn) | – | -97.18% | > 29.5 µM | – |
| CSCCC(=O)N1CCCC1c1ccsc1 (stereo not drawn) | – | -17.9% | > 29.5 µM | IC50 [10]: > 195 µM |
| CCc1cnc(CN(C)C2CCN(CCc3ccccn3)C2)o1 (stereo not drawn) | – | -35.57% | > 29.5 µM | – |
| CN(C)C(C)(C)CNC(=O)C(C)(C)c1ccccc1F | – | -62.05% | > 29.5 µM | – |
| COc1ccc(CNC(=O)C2(C#N)CCCC2)cc1 | – | -106.9% | > 29.5 µM | IC50 [10]: > 195 µM |
| CCOc1ncccc1NC(=O)c1cc2c(s1)CCC2 | – | -62.61% | > 29.5 µM | – |
| O=C(Nc1cccc(CN2CCOC2=O)c1)N1CCSCC1 | – | -6.059% | > 29.5 µM | – |
| CC(C)NC(=O)c1nnn(-c2cccc(C(F)(F)F)c2)c1C1CC1 | – | -32.68% | > 29.5 µM | – |
| CCCN(CC(=O)NC)C(=O)c1ccc(-c2ccsc2)nc1C | – | -8.65% | > 29.5 µM | – |
| CC(NC(=O)CCCOc1ccccc1Cl)c1ccncc1 (stereo not drawn) | – | -74.47% | > 29.5 µM | – |
| CSCC(CCO)NC(=O)Nc1cc(Br)ccc1C (stereo not drawn) | – | -20.66% | > 29.5 µM | – |
